This is an account of results in ChEMBL document CHEMBL1159103, “Discovery of biaryl inhibitors of H+/K+ ATPase” (Bioorg Med Chem Lett, 2010).

Usually pIC50 stands for −log10 of the IC50, conventionally taken in molar units.

This assay in a line: Inhibition of H(+)/K(+) ATPase.
Consider `CNCc1cccc(-c2c(C)cccc2C)c1`, for which the pIC50 came out at 4.3.

For `Cc1cccc(C)c1-c1cccc(-c2cncn2C)c1`, the pIC50 was 4.4.

With `Cc1cccc(C)c1Nc1cccc(-c2nc(C)c(C)[nH]2)c1`, the pIC50 was 4.9.

As to `Cc1cccc(C)c1-c1cc(-c2nc(C)c(C)[nH]2)cs1`, the negative logarithm of the IC50 (pIC50) is recorded as 4.5.

The molecule `Cc1cccc(C)c1-c1ccc(OCc2ccccc2)c(-c2nc(C)c(C)[nH]2)c1` gave a pIC50 of 5.3.

Regarding `CCc1nc(-c2cccc(-c3c(C)cccc3C)c2)[nH]c1CC`, the negative logarithm of the IC50 (pIC50) was 4.8.

In the case of `Cc1cccc(C)c1-c1ccc(-c2nc(C)c(C)[nH]2)cc1`, the pIC50 is on record as 4.4.

For `Cc1cccc(C)c1-c1ccc(OC(F)F)c(-c2nc(C)c(C)[nH]2)c1`, the negative logarithm of the IC50 (pIC50) came out at 5.

`Cc1cccc(C)c1-c1ccc(OCC(N)=O)c(-c2nc(C)c(C)[nH]2)c1`: the pIC50 came out at 5.7.

In turn, `COC(=O)COc1ccc(-c2c(C)cccc2C)cc1-c1nc(C)c(C)[nH]1` had a negative logarithm of the IC50 (pIC50) of 5.9.

`Cc1cccc(C)c1-c1cccc(N2CCN(C)CC2)c1` registered a negative logarithm of the IC50 (pIC50) of 4.4.

Molecule `Cc1cccc(C)c1-c1ccc(O)c(-c2nc(C)c(C)[nH]2)c1` returned a negative-log IC50 (pIC50) of 5.7.

`COc1c(-c2c(C)cccc2C)cc2c(c1-c1nc(C)c(C)[nH]1)OCC2` gave a negative-log IC50 (pIC50) of 5.5.

Molecule `Cc1cccc(C)c1CNc1cccc(-c2nc(C)c(C)[nH]2)c1` returned a negative logarithm of the IC50 (pIC50) of 4.3.

The molecule `CCCn1ccnc1-c1cccc(-c2c(C)cccc2C)c1` gave a pIC50 of 4.3.

`COc1cc(-c2c(C)cccc2C)cc(-c2nc(C)c(C)[nH]2)c1OC` registered a pIC50 of 4.6.

As to `Cc1cccc(C)c1-c1cccc(-c2ncc[nH]2)c1`, the pIC50 turned out to be 4.5.

In the case of `Cc1cccc(C)c1-c1ccc(-c2nc(C)c(C)[nH]2)s1`, the negative-log IC50 (pIC50) stood at 4.1.

For the molecule `Cc1cccc(C)c1-c1cccc(-c2cn(C)c(C)n2)c1`, the pIC50 turned out to be 4.8.

In the case of `Cc1cccc(C)c1-c1cc(-c2nc(C)c(C)[nH]2)ccc1-c1ccncc1`, the pIC50 is listed as below 4.

`Cc1cccc(C)c1-c1cccc(-c2nccn2C)c1` displayed a negative-log IC50 (pIC50) of 5.2.

As for `COc1c(-c2nc(C)c(C)[nH]2)cccc1-c1c(C)cccc1C`, the pIC50 was below 4.

In turn, `Cc1cccc(C)c1-c1cccc(-c2nc3ccccc3[nH]2)c1` yielded a negative logarithm of the IC50 (pIC50) of 4.4.

Molecule `Cc1nc(-c2ccccc2-c2ccccc2)[nH]c1C` gave a pIC50 of 4.2.

`COc1ccc(-c2nc(C)c(C)[nH]2)cc1-c1c(C)cccc1C` gave a pIC50 of 4.9.

`COc1ncccc1-c1cc(-c2nc(C)c(C)[nH]2)cc(-c2c(C)cccc2C)c1`: the pIC50 amounted to 4.8. This pIC50 and that of the molecule before are within 0.2 log units of each other.

Take `CCCn1c(-c2cc(-c3c(C)cccc3C)ccc2OC)nc(C)c1C`: the pIC50 stood at 4.9.

`COc1ccc(-c2c(C)cccc2C)cc1-c1nc(C)c(C)[nH]1` came in with a pIC50 of 6.1.

The molecule `Cc1nc(-c2cccc(-c3ccccc3)c2)[nH]c1C` had a pIC50 of 4.7.

The molecule `Cc1cccc(C)c1-c1cc(-c2nc(C)c(C)[nH]2)co1` registered a pIC50 below 4.

`Cc1cccc(C)c1-c1cccc(-c2nc(C)c(C)[nH]2)c1` came in with a pIC50 of 5.2.

`CCOc1ccc(-c2c(C)cccc2C)cc1-c1nc(C)c(C)[nH]1` had a negative logarithm of the IC50 (pIC50) of 5.6.

`Cc1nc(-c2cccc(/C=C/c3ccccc3)c2)[nH]c1C` gave a negative-log IC50 (pIC50) of 4.4.

Take `Cc1cccc(C)c1-c1cccc(-c2cc(N)ccn2)c1`: the negative logarithm of the IC50 (pIC50) turned out to be 4.5.

Consider `Cc1nc(-c2cccc(CCc3ccccc3)c2)[nH]c1C`, for which the pIC50 amounted to 4.3.

The molecule `Cc1cscc1-c1cccc(-c2nc(C)c(C)[nH]2)c1` yielded a negative-log IC50 (pIC50) of 4.8.

As to `Cc1cccc(C)c1-c1cccc(-c2nc(C)c(C)n2C)c1`, the negative logarithm of the IC50 (pIC50) is 4.6.

Molecule `Cc1nc(-c2cccc(C(=O)Nc3ccccc3)c2)[nH]c1C` yielded a negative-log IC50 (pIC50) of 4.

In turn, `CCc1cccc(CC)c1-c1cccc(-c2nc(C)c(C)[nH]2)c1` returned a pIC50 of 5.1.

As for `Cc1ccccc1-c1cccc(-c2nc(C)c(C)[nH]2)c1`, the negative logarithm of the IC50 (pIC50) is on record as 5.1.

Take `Cc1ccc(-c2nc(C)c(C)[nH]2)cc1-c1c(C)cccc1C`: the negative-log IC50 (pIC50) was determined as 4.9.

In turn, `COc1c(-c2c(C)cccc2C)cc2ccoc2c1-c1nc(C)c(C)[nH]1` yielded a negative-log IC50 (pIC50) of 5.4.

`Cc1cccc(C)c1-c1ccc(-c2nc(C)c(C)[nH]2)o1` yielded a pIC50 of 4.9.
